Values quoted from earlier work, collected in patent EP4470382A1, “PLANT EXTRACT AND METHODS COMPRISING THEREOF” (FUNDACION UNIVERSITARIA SAN ANTONIO (UCAM), priority 2023, dated 2024).

Details: activity registered in BIOPEP for the sequence

Substance	Activity
LLYQEPVLGPVRGPFPIIV [peptide derived from bovine b-casein (1-28), identified in bovine casein hydrolysate, BIOPEP ID 8174]	immunomodulat ing
RPKHPIKHQGLPQEVLNENLLRF [Isracidin - antiviral, identified in bovine casein hydrolysate, BIOPEP ID 9530]	antiviral
SQSKVLPVPQKAVPYPQ [Antioxidative peptide identified in bovine casein hydrolysate, BIOPEP ID 9907]	antioxidative
VYQHQKAMKPWIQPKTKVIPYVRYL [(fr. 183-207) of bovine alpha s2-casein, identified in bovine casein hydrolysate, BIOPEP ID 5469]	antibacterial
YQKFPQY	ACE inhibitor
